Source: patent publication US20250176550A1, “HERBICIDE COMPOSITION OF URACIL COMPOUND CONTAINING CARBOXYLATE FRAGMENT AND THE USE THEREOF” (Jiangsu Flag Chemical Industry Co., Ltd., priority 2022, published 2025)
Like-named read-outs stand apart in the source and are kept apart here.

Legend:
Type in all cases: in vivo
eleusine indica = test: Indoor virulence and combined effect, greenhouse pot test, pre-emergence soil spray treatment, fresh weight inhibition
Experimental: (§1) The active ingredients A and B are respectively screened and an indoor combined effect of the composition on weeds was evaluated by an indoor test and a field test, to determine a combined effect of the composition on weeds.
(§2) Quantitative seeds of Poaceae weeds (echinochloa crusgalli, Digitaria sanguinalis, setaria viridis, Eleusine indica, avena fatua, alopecurus japonicus, alopecurus aequalis, Lolium multiflorum) and broadleaf weeds (eclipta prostrata, rorippa dubia, Abutilon theophrasti, conyza canadensis, veronica persica, myosoton aquaticum, polygonum lapathifolium, galium aparine var. tenerum, alisma plantago-aquatica, geranium carolinianum) were sown in paper cup containing nutrient soil with a diameter of 7 cm, covered with soil for 1 cm after sowing. After pressing and watering, they were cultured in a greenhouse according to a conventional method. Poaceae weeds grew to 3˜4 leaf stage, broad-leaved weeds grew to 4˜6 leaf stage, spraying treatment to both stem and leaf was performed; and pre-seedling soil spray treatment was performed 24 hours after sowing. Following an experimental design dosage, a WP-2000 walking spray tower (spindle speed 96 mm/r, spray height 200 mm, effective spray amplitude of nozzle 350 mm, nozzle flow rate 390 mL/min, nozzle walking speed 210 mm/s) was used for the spray treatment. The experiment was repeated three times. After being treated, a sample material is placed in an operation hall, and after the drug solution is naturally dried out, the sample material is placed in a greenhouse and managed according to the conventional method. A reaction of weeds to the drug agent is observed and recorded, and a regularly visual check of a control effect of the drug agent on weeds was performed after the treatment.
(§3) All of original drugs were using acetone as a solvent, being diluted with 0.1 wt % emulsifier of Tween-80 aqueous solution, and being diluted right before using.
(§4) When determining a ratio or content of the active ingredient A and the active ingredient B, it should be measured from characteristics of action of both agents and virulence thereof, as well as the main purpose of use of a formula shall also be considered in. In the present study, on a basis of previous pre-test, the dosages of the active ingredient A and the active ingredient B were set, when being used alone and mixed, as shown in the following table. Water containing no agent, but containing the same solvent and emulsifier was used as a blank control.
(§5) Repeat 4 times for each treatment, 3 pots per treatment each time and 30 weed seeds were sown for each pot.
(§6) Adopting an absolute number survey method, using a blade to cut the whole seedling of surviving weed along soil surface, and weighting the fresh weight of the weed with an analytical balance. For weeds that had died, counting the fresh weight as zero.
(§7) Survey period and frequency: 21 days after the treatment, total 1 investigation.
(§8) The theoretical fresh weight inhibition rate (E0-Expected Efficacy=[…]) of each treatment combination was calculated by Gowing method, and then compared with the measured inhibition rate (E-Observed Efficacy) to evaluate the combined effect type of both on weeds. When E-E0 value was greater than 10%, it was counted as a synergistic effect, less than −10%, it was counted as an antagonistic effect, and between −10%˜10%, it was counted as an additive effect. According to a plurality of factors including an actual control efficacy, a herbicide characteristic, a formula balance and other factors to determine the best ratio. In the formula, X is the fresh weight inhibition rate of the ingredient A at a dosage of P; Y is the fresh weight inhibition rate of the active ingredient B at a dosage of Q.
(§9) The statistical results are shown in Table 1 to Table 44 below, except for those marked clearly as “pre-emergence treatment”, all others are “post-emergence treatment”. […]

alopecurus japonicus = test: Indoor virulence and combined effect, greenhouse pot test, post-emergence stem and leaf spray, fresh weight inhibition; details: for inhibition at 25 g/ha: 25 g a.i./ha; for Fresh weight inhibition rate %, B single agent: Table 25
Experimental: as §1, §2, §3, §4, §5, §6, §7, §8, §9

digitaria sanguinalis = test: Indoor virulence and combined effect, greenhouse pot test, pre-emergence soil spray treatment, fresh weight inhibition
Experimental: as §1, §2, §3, §4, §5, §6, §7, §8, §9

setaria viridis = test: Indoor virulence and combined effect, greenhouse pot test, post-emergence stem and leaf spray, fresh weight inhibition; details: for Fresh weight inhibition rate %, B single agent: Table 10; for inhibition at 750 g/ha: 750 g a.i./ha
Experimental: as §1
as §2, with “Following an experimental design dosage, a WP-2000 walking spray tower (spindle speed 96 mm/r, spray height 200 mm, effective spray amplitude of nozzle 350 mm, nozzle flow rate 390 mL/min, nozzle walking speed 210 mm/s) was used for the spray treatment.” left out, “method.” for “method. A reaction of weeds to the drug agent is observed and recorded, and a regularly visual check of a control effect of the drug agent on weeds was performed after the treatment.”
as §3, §4, §5, §6, §7
When E-E0 value was greater than 10%, it was counted as a synergistic effect, less than −10%, it was counted as an antagonistic effect, and between −10%˜10%, it was counted as an additive effect. […] In the formula, X is the fresh weight inhibition rate of the ingredient A at a dosage of P; Y is the fresh weight inhibition rate of the active ingredient B at a dosage of Q.

eclipta prostrata = test: Indoor virulence and combined effect, greenhouse pot test, pre-emergence soil spray treatment, fresh weight inhibition
Experimental: as §1, §2, §3, §4, §5, §6, §7, §8, §9

CCC(CC)Nc1c([N+](=O)[O-])cc(C)c(C)c1[N+](=O)[O-] [pendimethalin]
Fresh weight inhibition rate %, B single agent (eleusine indica; Table 21, B 300 g a.i./ha): 36.92%
Fresh weight inhibition rate %, B single agent (eleusine indica; Table 21, B 375 g a.i./ha): 54.44%

CCSC(C)CC1CC(=O)C(/C(CC)=N/OC/C=C/Cl)=C(O)C1 (stereo not drawn) [clethodim]
inhibition at 25 g/ha (alopecurus japonicus; Alopecurus japonicus, 504 h, Table 5, post-emergence, 21 days after treatment, read-out: Fresh weight inhibition rate %, B single agent): 7.52%
inhibition at 40 g/ha (alopecurus japonicus; Alopecurus japonicus, 504 h, Table 5, 40 g a.i./ha, post-emergence, 21 days after treatment, read-out: Fresh weight inhibition rate %, B single agent): 34.8%
inhibition at 60 g/ha (alopecurus japonicus; Alopecurus japonicus, 504 h, Table 5, 60 g a.i./ha, post-emergence, 21 days after treatment, read-out: Fresh weight inhibition rate %, B single agent): 43%

CCCN(CCC)c1c([N+](=O)[O-])cc(C(F)(F)F)cc1[N+](=O)[O-] [trifluralin]
Fresh weight inhibition rate %, B single agent (digitaria sanguinalis; Table 39, B 156.25 g a.i./ha): 12.50%
Fresh weight inhibition rate %, B single agent (digitaria sanguinalis; Table 39, B 250 g a.i./ha): 48.67%
Fresh weight inhibition rate %, B single agent (digitaria sanguinalis; Table 39, B 375 g a.i./ha): 62.58%

CCc1cc(C)cc(CC)c1-c1c(OC(=O)C(C)(C)C)n2n(c1=O)CCOCC2 [pinoxaden]
inhibition at 15 g/ha (alopecurus japonicus; Alopecurus japonicus, 504 h, Table 7, 15 g a.i./ha, post-emergence, 21 days after treatment, read-out: Fresh weight inhibition rate %, B single agent): 38.8%
inhibition at 20 g/ha (alopecurus japonicus; Alopecurus japonicus, 504 h, Table 7, 20 g a.i./ha, post-emergence, 21 days after treatment, read-out: Fresh weight inhibition rate %, B single agent): 42.3%
inhibition at 25 g/ha (alopecurus japonicus; Alopecurus japonicus, 504 h, Table 7, post-emergence, 21 days after treatment, read-out: Fresh weight inhibition rate %, B single agent): 58.7%

COC(=O)[C@@H](C)Oc1ccc(Oc2ncc(C(F)(F)F)cc2Cl)cc1 [haloxyfop-P-methyl]
Fresh weight inhibition rate %, B single agent (alopecurus japonicus; B 15 g a.i./ha): 7.80%
Fresh weight inhibition rate %, B single agent (alopecurus japonicus; B 25 g a.i./ha): 15.29%
Fresh weight inhibition rate %, B single agent (alopecurus japonicus; B 40 g a.i./ha): 15.32%
Fresh weight inhibition rate %, B single agent (alopecurus japonicus; B 60 g a.i./ha): 27.52%

CC(C)c1ccc(NC(=O)N(C)C)cc1 [isoproturon]
Fresh weight inhibition rate %, B single agent (setaria viridis; B 400 g a.i./ha): 22.19%
Fresh weight inhibition rate %, B single agent (setaria viridis; B 495 g a.i./ha): 23.26%
Fresh weight inhibition rate %, B single agent (setaria viridis; B 600 g a.i./ha): 33.26%

CCc1cccc(C)c1N(C(=O)CCl)[C@@H](C)COC [S-metolachlor]
Fresh weight inhibition rate %, B single agent (eclipta prostrata; Table 28, B 300 g a.i./ha): 45.64%
Fresh weight inhibition rate %, B single agent (eclipta prostrata; Table 28, B 450 g a.i./ha): 57.41%
Fresh weight inhibition rate %, B single agent (eclipta prostrata; Table 28, B 600 g a.i./ha): 61.78%
Fresh weight inhibition rate %, B single agent (eclipta prostrata; Table 28, B 750 g a.i./ha): 70.72%

CCC(=O)Nc1ccc(Cl)c(Cl)c1 [propanil]
inhibition at 500 g/ha (setaria viridis; Setaria viridis, 504 h, Table 6, 500 g a.i./ha, post-emergence, 21 days after treatment, read-out: Fresh weight inhibition rate %, B single agent): 48.1%
inhibition at 750 g/ha (setaria viridis; Setaria viridis, 504 h, Table 6, post-emergence, 21 days after treatment, read-out: Fresh weight inhibition rate %, B single agent): 58.1%
inhibition at 1000 g/ha (setaria viridis; Setaria viridis, 504 h, Table 6, 1000 g a.i./ha, post-emergence, 21 days after treatment, read-out: Fresh weight inhibition rate %, B single agent): 69.1%

CCNc1nc(Cl)nc(NC(C)C)n1 [atrazine]
inhibition at 600 g/ha (setaria viridis; Setaria viridis, 504 h, Table 8, 600 g a.i./ha, post-emergence, 21 days after treatment, read-out: Fresh weight inhibition rate %, B single agent): 26.1%
inhibition at 750 g/ha (setaria viridis; Setaria viridis, 504 h, Table 8, post-emergence, 21 days after treatment, read-out: Fresh weight inhibition rate %, B single agent): 33%
inhibition at 800 g/ha (setaria viridis; Setaria viridis, 504 h, Table 8, 800 g a.i./ha, post-emergence, 21 days after treatment, read-out: Fresh weight inhibition rate %, B single agent): 41.6%

CCOCN(C(=O)CCl)c1c(C)cccc1CC [acetochlor]
Fresh weight inhibition rate %, B single agent (digitaria sanguinalis; Table 40, B 250 g a.i./ha): 55.88%
Fresh weight inhibition rate %, B single agent (digitaria sanguinalis; Table 40, B 375 g a.i./ha): 67.45%
